Our source for the IC50 values is patent publication US7001906B2, “Pyrido-pyrido-pyrrolo pyrrolo-indole and pyrido-pyrrolo pyrrolo carbazole derivatives, method for the production thereof and pharmaceutical compositions containing said derivatives” (Les Laboratoires Servier, priority 2001, dated 2006).

Each structure is given as a SMILES string. A value given as a limit tells only on which side of the number the result lay.

Holding throughout (format): cell-based
In one assay the test system is neuroblastoma SK-N-MC. As to the kind of experiment: In vitro cytotoxicity on human cell lines: neuroblastoma SK-N-MC. As to conditions: 96 h, incubation 4 days. Here is the method:
(§1) Murine leukaemia L1210 was used in vitro. The cells are cultured in RPMI 1640 complete culture medium containing 10% foetal calf serum, 2 mM glutamine, 50 units/ml of penicillin, 50 μg/ml of streptomycin and 10 mM Hepes, pH: 7.4. The cells are distributed on microplates and exposed to the cytotoxic compounds for 4 doubling periods, or 48 hours. The number of viable cells is then quantified by means of a colorimetric assay, the Microculture Tetrazolium Assay (J. Carmichael et al., Cancer Res., 47, 936–942, (1987)). The results are expressed as IC50, the concentration of cytotoxic agent which inhibits the proliferation of the treated cells by 50%.
(§2) The compounds of the invention were also tested on human cell lines according to the same experimental protocol as that described for murine leukaemia L1210, but with incubation times of 4 days instead of 2 days.

The subject of assay [1] is small cell lung carcinoma H 69. The assay can be described thus: In vitro cytotoxicity on human cell lines: small cell lung carcinoma H 69. As to conditions: 96 h, small cell lung carcinoma H 69, incubation 4 days. The procedure: as §1, §2
Assay [2] concerns epidermoid carcinoma A431. As to the kind of experiment: In vitro cytotoxicity on human cell lines: epidermoid carcinoma A431. As to conditions: A-431, 96 h, epidermoid carcinoma A431, incubation 4 days. The procedure: as §1, §2
The next assay concerns Murine leukaemia L1210. As to the kind of experiment: In vitro cytotoxicity, murine leukaemia L1210 (Microculture Tetrazolium Assay). As to conditions: Mus musculus; L1210, exposure 4 doubling periods, or 48 hours; read-out: IC50, the concentration of cytotoxic agent which inhibits the proliferation of the treated cells by 50%. Here is the method: as §1

For the compound `O=C1NC(=O)c2c1c1c3ccccc3[nH]c1c1c2c2cccnc2n1[C@@H]1O[C@H](CO)[C@@H](O)[C@H](O)[C@H]1O` [Example 3, 13-(β-D-glucopyranosyl)-12,13-dihydro-5H-pyrido[3′,2′:4,5]pyrrolo-[2,3-a]pyrrolo[3,4-c]carbazole-5,7(6H)-dione], the IC50 (in the assay on neuroblastoma SK-N-MC; in assay [1]; in assay [2]) was < 1000 nM throughout.

In the case of `O=C1NC(=O)c2c1c1c3cc(Br)ccc3[nH]c1c1c2c2cccnc2n1[C@@H]1O[C@H](CO)[C@@H](O)[C@H](O)[C@H]1O` [Example 4, 9-bromo-13-(β-D-glucopyranosyl)-12,13-dihydro-5H-pyrido-[3′,2′:4,5]pyrrolo[2,3-a]pyrrolo [3,4-c]carbazole-5,7(6H)-dione], the IC50 with neuroblastoma SK-N-MC was < 1000 nM; with Murine leukaemia L1210, < 100 nM; in assay [1], < 1000 nM; in assay [2], < 1000 nM.

Take `O=C1NC(=O)c2c1c1c3cc([N+](=O)[O-])ccc3[nH]c1c1c2c2cccnc2n1[C@@H]1O[C@H](CO)[C@@H](O)[C@H](O)[C@H]1O` [Example 5, 9-nitro-13-(β-D-glucopyranosyl)-12,13-dihydro-5H-pyrido-[3′,2′:4,5]pyrrolo[2,3-a]pyrrolo[3,4-c]carbazole-5,7(6H)-dione]: the IC50 is < 1000 nM in the assay with neuroblastoma SK-N-MC, < 100 nM in the assay with Murine leukaemia L1210, < 1000 nM in assay [1] and < 1000 nM in assay [2].

`O=C1NC(=O)c2c1c1c3cccnc3[nH]c1c1c2c2ccccc2n1[C@@H]1O[C@H](CO)[C@@H](O)[C@H](O)[C@H]1O` [Example 9, 12-(β-D-glucopyranosyl)-12,13-dihydro-5H-pyrido[3′,2′:4,5]pyrrolo-[2,3-a]pyrrolo[3,4-c]carbazole-5,7(6H)-dione]: in the assay with Murine leukaemia L1210, the IC50 is < 100 nM.

Consider `O=C1NC(=O)c2c1c1c3cccnc3[nH]c1c1c2c2cccnc2n1[C@@H]1O[C@H](CO)[C@@H](O)[C@H](O)[C@H]1O` [Example 12, 12-(β-D-glucopyranosyl)-12,13-dihydro-5H-pyrido[2,3-b]-pyrido[3′,2′:4,5]pyrrolo[3,2-g]pyrrolo[3,4-e]indole-5,7(6H)-dione], for which the IC50 with Murine leukaemia L1210 was < 100 nM.

With `CN1C(=O)c2c(c3c4cccnc4n([C@@H]4O[C@H](CO)[C@@H](O)[C@H](O)[C@H]4O)c3c3[nH]c4ccccc4c23)C1=O` [Example 17, 13-(β-D-glucopyranosyl)-6-methyl-12,13-dihydro-5H-pyrido-[3′,2′:4,5]pyrrolo [2,3-a]pyrrolo [3,4-c]carbazole-5,7(6H)-dione], the IC50 (in the assay on neuroblastoma SK-N-MC; in assay [1]; in assay [2]) was < 1000 nM throughout.

Take `CN1C(=O)c2c(c3c4cccnc4n([C@@H]4O[C@H](CO)[C@@H](O)[C@H](O)[C@H]4O)c3c3[nH]c4ccc(Br)cc4c23)C1=O` [Example 19, 13-(β-D-glucopyranosyl)-9-bromo-6-methyl-12,13-dihydro-5H-pyrido[3′,2′:4,5]pyrrolo[2,3-a]pyrrolo[3,4-c]carbazole-5,7(6H)-dione]: the IC50 (with neuroblastoma SK-N-MC; in assay [1]; in assay [2]) was < 1000 nM in each case.
